Source: US20220041572A1, “CYCLOHEPTYL ACIDS AS LPA ANTAGONISTS” (BRISTOL-MYERS SQUIBB COMPANY, priority 2018, published 2022)

Target: T1, human LPA1 (Homo sapiens, UniProt Q92633)
T1 construct: expressed in transfected cells; host or cells: Chinese hamster ovary (CHO) cells
Experiment: LPA1 functional antagonist assay (LPA-induced calcium flux)
Assay type: cell-based
Details: CHO cells overexpressing human LPA1; inhibition of calcium flux induced by 10 nM LPA; read-out: hLPA1 IC50
Method: The effectiveness of compounds of the present invention as LPA1 inhibitors can be determined in an LPA1 functional antagonist assay as follows:
Chinese hamster ovary cells overexpressing human LPA1 were plated overnight (15,000 cells/well) in poly-D-lysine coated 384-well microplates (Greiner bio-one, Cat#781946) in DMEM/F12 medium (Gibco, Cat#11039). Following overnight culture, cells were loaded with calcium indicator dye (AAT Bioquest Inc, Cat#34601) for 30 minutes at 37° C. The cells were then equilibrated to room temperature for 30 minutes before the assay. Test compounds solubilized in DMSO were transferred to 384 well non-binding surface plates (Coming, Cat#3575) using the Labcyte Echo acoustic dispense and diluted with assay buffer [1X HBSS with calcium/magnesium (Gibco Cat#14025-092), 20 mM HEPES (Gibco Cat#15630-080) and 0.1% fatty acid free BSA (Sigma Cat#A9205)] to a final concentration of 0.5% DMSO. Diluted compounds were added to the cells by FDSS6000 (Hamamatsu) at final concentrations ranging from 0.08 nM to 5 μM. and were then incubated for 20 min at room temperature at which time LPA (Avanti Polar Lipids Cat#857130C) was added at final concentrations of 10 nM to stimulate the cells. The compound IC50 value was defined as the concentration of test compound which inhibited 50% of the calcium flux induced by LPA alone. IC50 values were determined by fitting data to a 4-parameter logistic equation (GraphPad Prism, San Diego Calif.).

T1 sequence (Q92633 whole entry): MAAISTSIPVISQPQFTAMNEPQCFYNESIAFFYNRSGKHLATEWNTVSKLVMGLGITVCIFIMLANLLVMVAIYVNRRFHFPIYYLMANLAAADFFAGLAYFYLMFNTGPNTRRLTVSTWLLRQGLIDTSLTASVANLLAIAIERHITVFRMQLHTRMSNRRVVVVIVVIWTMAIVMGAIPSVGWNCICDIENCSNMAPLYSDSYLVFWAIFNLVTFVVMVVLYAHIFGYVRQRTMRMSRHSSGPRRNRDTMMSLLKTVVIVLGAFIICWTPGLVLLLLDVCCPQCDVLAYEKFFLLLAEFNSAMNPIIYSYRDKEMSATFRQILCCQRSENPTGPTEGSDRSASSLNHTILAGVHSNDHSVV

Compared with `Cc1nc(-c2nnn(C)c2COc2cc(C(C)(C)C)ncn2)ccc1OC1CCCCC(C(=O)O)C1` (stereo not drawn) [Example 16], `Cc1nc(-c2nnn(C)c2COc2cc(C(C)C)ncn2)ccc1OC1CCCCC(C(=O)O)C1` (stereo not drawn) [Example 19] is 3.2-fold lower in IC50: 0.154 µM for the first, 0.048 µM for the second.

Compared with `Cc1nc(-c2nnn(C)c2COC(=O)N(C)CC2CCC2)ccc1O[C@@H]1CCCC[C@@H](C(=O)O)C1` (single isomer, unassigned) [Example 3], `Cc1nc(-c2nnn(C)c2COC(=O)N(C)CC2CCC2)ccc1O[C@@H]1CCCC[C@H](C(=O)O)C1` (single isomer, unassigned) [Example 5] is 2.7-fold higher in IC50: 0.108 µM for the first, 0.296 µM for the second. The first is the more potent here.

Compared with `CCc1cc(OCc2c(-c3ccc(OC4CCCCC(C(=O)O)C4)c(C)n3)nnn2C)ncn1` (racemic) [Example 15, (±)-3-((6-(5-(((6-ethylpyrimidin-4-yl)oxy)methyl)-1-methyl-1H-1,2,3-triazol-4-yl)-2-methylpyridin-3-yl)oxy)cycloheptane-1-carboxylic Acid], `Cc1nc(-c2nnn(C)c2COc2cc(C(C)C)ncn2)ccc1OC1CCCCC(C(=O)O)C1` (stereo not drawn) [Example 18] is 4.5-fold higher in IC50: 0.032 µM for the first, 0.145 µM for the second. The first is the more potent here.

`Cc1nc(-c2nnn(C)c2COC(=O)N(C)CC2CC2)ccc1OC1CCCCC(C(=O)O)C1` (stereo not drawn) [Example 7] and `Cc1nc(-c2nnn(C)c2COC(=O)N(C)CC2CCC2)ccc1O[C@@H]1CCCC[C@@H](C(=O)O)C1` (single isomer, unassigned) [Example 2] are within 1.5-fold of each other in IC50: 0.011 µM for the first, 0.0095 µM for the second.

First: Cc1nc(-c2nnn(C)c2COc2cc(C(C)(C)C)ncn2)ccc1OC1CCCCC(C(=O)O)C1 (stereo not drawn) [Example 17]
Second: COc1cc(OCc2c(-c3ccc(OC4CCCCC(C(=O)O)C4)c(C)n3)nnn2C)ncn1 (stereo not drawn) [Example 21]
The IC50 of the first is 13-fold higher: 0.325 µM for the first, 0.026 µM for the second.

Compared with `Cc1nc(-c2nnn(C)c2COC(=O)N(C)C2CCCC2)ccc1OC1CCCCC(C(=O)O)C1` (stereo not drawn) [Example 8], `Cc1nc(-c2nnn(C)c2COC(=O)N(C)C2CCC2)ccc1OC1CCCCC(C(=O)O)C1` (stereo not drawn) [Example 14] is 1.8-fold higher in IC50: 0.011 µM for the first, 0.02 µM for the second. The first is the more potent here.

Going from `Cc1nc(-c2nnn(C)c2COC(=O)N(C)CCC(C)C)ccc1OC1CCCCC(C(=O)O)C1` (stereo not drawn) [Example 12] to `Cc1nc(-c2nnn(C)c2COC(=O)N(C)CC(C)C)ccc1OC1CCCCC(C(=O)O)C1` (stereo not drawn) [Example 10], the IC50 rises from 0.025 µM to 0.088 µM (3.5-fold).

First: Cc1nc(-c2nnn(C)c2NC(=O)O[C@H](C)c2ccccc2)ccc1OC1CCCCC(C(=O)O)C1 (mixture of isomers) [Example 22, (±)-3-((2-methyl-6-(1-methyl-5-((((R)-1-phenylethoxy)carbonyl)amino)-1H-1,2,3-triazol-4-yl)pyridin-3-yl)oxy)cycloheptane-1-carboxylic Acid]
Second: Cc1nc(-c2nnn(C)c2NC(=O)OCC(C)C)ccc1OC1CCCCC(C(=O)O)C1 (stereo not drawn) [Example 24]
The IC50 of the first is 1.7-fold lower: 0.053 µM for the first, 0.091 µM for the second.

Compared with `Cc1nc(-c2nnn(C)c2NC(=O)OCC2CC2)ccc1OC1CCCCC(C(=O)O)C1` (stereo not drawn) [Example 23], `Cc1nc(-c2nnn(C)c2COC(=O)N(C)C2CCC2)ccc1OC1CCCCC(C(=O)O)C1` (stereo not drawn) [Example 13] is 2.5-fold lower in IC50: 0.127 µM for the first, 0.051 µM for the second. The second is the more potent here.

Compared with `Cc1nc(-c2nnn(C)c2COC(=O)N(C)CC2CCC2)ccc1O[C@@H]1CCCC[C@H](C(=O)O)C1` (single isomer, unassigned) [Example 4], `CCCN(C)C(=O)OCc1c(-c2ccc(OC3CCCCC(C(=O)O)C3)c(C)n2)nnn1C` (stereo not drawn) [Example 6] is 6.2-fold higher in IC50: 0.019 µM for the first, 0.117 µM for the second. The first is the more potent here.

`Cc1nc(-c2nnn(C)c2COC(=O)N(C)Cc2ccccc2)ccc1OC1CCCCC(C(=O)O)C1` (racemic) [Example 1, (±)-3-((6-(5-(((benzyl(methyl)carbamoyl)oxy)methyl)-1-methyl-1H-1,2,3-triazol-4-yl)-2-methylpyridin-3-yl)oxy)cycloheptane-1-carboxylic Acid] and `Cc1nc(-c2nnn(C)c2COC(=O)N(C)CC(C)C)ccc1OC1CCCCC(C(=O)O)C1` (stereo not drawn) [Example 9] are the same in IC50: 0.016 µM for the first, 0.016 µM for the second.

First: Cc1nc(-c2nnn(C)c2COC(=O)N(C)CCC(C)C)ccc1OC1CCCCC(C(=O)O)C1 (stereo not drawn) [Example 11]
Second: COc1cc(OCc2c(-c3ccc(OC4CCCCC(C(=O)O)C4)c(C)n3)nnn2C)ncn1 (stereo not drawn) [Example 20]
The IC50 of the first is 1.9-fold lower: 0.036 µM for the first, 0.067 µM for the second.

System: CTGF
Experiment: not given
Details: MCT cells, co-treatment with LPA; cited from earlier work

In the case of `Cc1noc(-c2ccc(CSCCC(=O)O)cc2)c1NC(=O)OC(C)c1ccccc1Cl` (stereo not drawn) [Ki16425], the “LPA induction of CTGF expression” value is listed as “almost completely suppressed”.

System: pancreatic cancer cell lines
Experiment: not given
Details: Yamada et al 2004; cited from earlier work

In the case of `Cc1noc(-c2ccc(CSCCC(=O)O)cc2)c1NC(=O)OC(C)c1ccccc1Cl` (stereo not drawn) [Ki16425], the “in vitro migration in response to LPA and peritoneal fluid (ascites) from pancreatic cancer patients” value is listed as “effectively blocked”.

System: human foetal lung fibroblasts
Experiment: not given
Details: Tager et al. Nature Medicine 2008; cited from earlier work

In the case of `Cc1noc(-c2ccc(CSCCC(=O)O)cc2)c1NC(=O)OC(C)c1ccccc1Cl` (stereo not drawn) [Ki16425], the “chemotaxis of human foetal lung fibroblasts induced by BAL from IPF patients” value is listed as “blocked”.

System: highly peritoneal metastatic pancreatic cancer cell line
Experiment: not given
Details: Yamada et al 2004; cited from earlier work

For `Cc1noc(-c2ccc(CSCCC(=O)O)cc2)c1NC(=O)OC(C)c1ccccc1Cl` (stereo not drawn) [Ki16425], the “LPA-induced and ascites-induced invasion activity” value is given as “blocked”.

System: nerve-injured mice
Experiment: not given
Details: pretreatment, Inoue et al 2004; cited from earlier work

For `C[C@@H](N)[C@H]1CC[C@H](C(=O)Nc2ccncc2)CC1` [Example Y-27632], the allodynia and hyperalgesia is listed as “completely abolished”.

System: UUO mice
Experiment: not given
Details: compared with LPA1 (−/−) mice; cited from earlier work

In the case of `Cc1noc(-c2ccc(CSCCC(=O)O)cc2)c1NC(=O)OC(C)c1ccccc1Cl` (stereo not drawn) [Ki16425], the “renal fibrosis profile of treated UUO mice” value is listed as “closely resembled the profile of LPA1 (−/−) mice”.
